Experimental data published in ChEMBL document CHEMBL5465560, “Selectivity Literature for EUbOPEN Chemogenomic Library” (2024).

How the values were obtained:
[1] = biological target: Serine/threonine-protein kinase SMG1 (Homo sapiens) (UniProt Q96Q15); experiment: Selectivity interaction (Kinase panel (KiNativ target engagement assay in Jurkat cells)) EUB0001635a SMG1; format: cell-based; details: Selectivity number of off-targets 0.0, Selectivity number of targets 233.0, Source Knowledge https://www.sciencedirect.com/science/article/pii/S2451945619300674?via%3Dihub, at 1 µM
[2] = biological target: Calcium/calmodulin-dependent protein kinase type 1G (Homo sapiens) (UniProt Q96NX5); details: at 10 µM
[3] = biological target: LIM domain kinase 1 (Homo sapiens) (UniProt P53667); experiment: Selectivity interaction (KinomeScan (DiscoverX)) EUB0000595a LIMK1; details: at 10 µM
[4] = biological target: Calcium/calmodulin-dependent protein kinase type II subunit alpha (Homo sapiens, UniProt Q9UQM7); experiment: Selectivity interaction (KinomeScan (DiscoverX)) EUB0000045b CAMK2A
[5] = biological target: Transient receptor potential cation channel subfamily M member 6 (Homo sapiens) (UniProt Q9BX84); experiment: Selectivity interaction (KinomeScan (DiscoverX)) EUB0001079a TRPM6; details: at 1 µM
[6] = biological target: T1, Ribosomal protein S6 kinase alpha-1 (Homo sapiens, UniProt Q15418); experiment: Selectivity interaction (KinomeScan (DiscoverX)) EUB0000666a RPS6KA1; details: at 10 µM
[7] = biological target: Serine/threonine-protein kinase Nek7 (Homo sapiens) (UniProt Q8TDX7); details: at 10 µM
[8] = biological target: Tyrosine-protein kinase ITK/TSK (Homo sapiens, UniProt Q08881); experiment: Selectivity interaction (Kinase counterscreening (biochemical assay)) EUB0000604a ITK
[9] = biological target: T2, Cytoplasmic tyrosine-protein kinase BMX (Homo sapiens) (UniProt P51813); experiment: Selectivity interaction (KinomeScan (DiscoverX)) EUB0001049a BMX; details: at 1 µM
T2 sequence (whole entry): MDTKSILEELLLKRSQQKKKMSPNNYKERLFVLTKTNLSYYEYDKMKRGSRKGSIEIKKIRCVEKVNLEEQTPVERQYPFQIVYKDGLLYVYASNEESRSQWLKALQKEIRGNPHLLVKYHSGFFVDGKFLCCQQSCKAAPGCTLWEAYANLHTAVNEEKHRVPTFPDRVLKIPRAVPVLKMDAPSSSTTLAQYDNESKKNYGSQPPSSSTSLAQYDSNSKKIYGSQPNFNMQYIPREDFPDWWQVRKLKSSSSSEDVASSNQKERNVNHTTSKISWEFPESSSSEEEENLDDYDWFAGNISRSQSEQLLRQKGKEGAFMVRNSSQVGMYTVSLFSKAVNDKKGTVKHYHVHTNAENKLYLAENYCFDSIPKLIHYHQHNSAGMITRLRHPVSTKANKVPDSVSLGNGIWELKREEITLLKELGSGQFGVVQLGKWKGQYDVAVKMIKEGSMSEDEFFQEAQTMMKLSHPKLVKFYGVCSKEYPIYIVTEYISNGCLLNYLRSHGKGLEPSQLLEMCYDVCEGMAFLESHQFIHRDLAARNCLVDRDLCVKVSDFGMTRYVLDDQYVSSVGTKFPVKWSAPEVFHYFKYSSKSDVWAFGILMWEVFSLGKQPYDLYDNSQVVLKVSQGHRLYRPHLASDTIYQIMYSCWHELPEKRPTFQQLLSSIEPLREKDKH

[10] = biological target: Homeodomain-interacting protein kinase 1 (Homo sapiens, UniProt Q86Z02); experiment: Selectivity interaction (Enzymatic assay (Eurofins)) EUB0001049a HIPK1
[11] = biological target: T1, Ribosomal protein S6 kinase alpha-1; experiment: Selectivity interaction (KinomeScan (DiscoverX)) EUB0001049a RPS6KA1; details: at 1 µM
[12] = biological target: T3, Receptor-interacting serine/threonine-protein kinase 4 (Homo sapiens) (UniProt P57078); experiment: Selectivity interaction (KinomeScan (DiscoverX)) EUB0001049a RIPK4; details: at 1 µM
T3 sequence (whole entry): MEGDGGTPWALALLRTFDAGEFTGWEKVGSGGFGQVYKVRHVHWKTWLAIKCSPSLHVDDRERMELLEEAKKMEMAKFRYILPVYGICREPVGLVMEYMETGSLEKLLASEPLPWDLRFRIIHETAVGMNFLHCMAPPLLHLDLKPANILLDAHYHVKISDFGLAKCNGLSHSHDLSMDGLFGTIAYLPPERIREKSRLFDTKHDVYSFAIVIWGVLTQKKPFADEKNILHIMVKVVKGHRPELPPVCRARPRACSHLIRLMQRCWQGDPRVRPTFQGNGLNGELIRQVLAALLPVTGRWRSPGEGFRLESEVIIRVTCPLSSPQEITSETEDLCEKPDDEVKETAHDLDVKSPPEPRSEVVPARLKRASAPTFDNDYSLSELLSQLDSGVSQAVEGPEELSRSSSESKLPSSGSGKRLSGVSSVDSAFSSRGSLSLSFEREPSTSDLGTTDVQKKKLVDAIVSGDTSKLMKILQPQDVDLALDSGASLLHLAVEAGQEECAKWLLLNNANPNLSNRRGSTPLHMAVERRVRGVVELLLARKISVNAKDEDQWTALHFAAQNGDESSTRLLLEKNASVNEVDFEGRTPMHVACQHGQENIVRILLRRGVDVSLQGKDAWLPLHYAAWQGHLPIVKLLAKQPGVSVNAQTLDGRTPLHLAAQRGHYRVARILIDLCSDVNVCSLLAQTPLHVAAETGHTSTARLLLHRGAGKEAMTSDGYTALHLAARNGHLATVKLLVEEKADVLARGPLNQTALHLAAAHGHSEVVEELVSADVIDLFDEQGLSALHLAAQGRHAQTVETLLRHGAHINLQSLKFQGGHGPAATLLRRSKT

Aurora kinase B = Aurora kinase B (Homo sapiens, UniProt Q96GD4); experiment: Selectivity interaction (Kinase panel (literature)) EUB0001199aCl AURKB; details: at 1 µM
[13] = biological target: Tyrosine-protein kinase Lyn (Homo sapiens, UniProt P07948); experiment: Selectivity interaction (KinomeScan (DiscoverX)) EUB0000607a LYN; details: at 10 µM
[14] = biological target: Mitogen-activated protein kinase 14 (Homo sapiens, UniProt Q16539); experiment: Selectivity interaction (KinomeScan (DiscoverX)) EUB0000607a MAPK14; details: at 10 µM
[15] = biological target: Angiopoietin-1 receptor (Homo sapiens) (UniProt Q02763); experiment: Selectivity interaction (KinomeScan (DiscoverX)) EUB0000607a TEK; details: at 10 µM
[16] = biological target: Serine/threonine-protein kinase 32C (Homo sapiens) (UniProt Q86UX6); experiment: Selectivity interaction (KinomeScan (DiscoverX)) EUB0000618a STK32C; details: at 10 µM
[17] = biological target: Serine/threonine-protein kinase 38-like (Homo sapiens) (UniProt Q9Y2H1); experiment: Selectivity interaction (ActivX KiNativ screen (kinase selectivity in THP-1 cell lysates)) EUB0000639a STK38L; format: subcellular; details: lysate, at 0.04 µM
[18] = biological target: LIM domain kinase 1 (Homo sapiens) (UniProt P53667); experiment: Selectivity interaction (Ambit KINOMEscan and KiNATiv profiling in Jurkat cells) EUB0000090b LIMK1; format: cell-based; details: at 1 µM
[19] = biological target: Calcium/calmodulin-dependent protein kinase type II subunit gamma (Homo sapiens) (UniProt Q13555); experiment: Selectivity interaction (Ambit KINOMEscan and KiNATiv profiling in Jurkat cells) EUB0000090b CAMK2G; format: cell-based; details: at 1 µM

Chain of Calcium/calmodulin-dependent protein kinase type II subunit alpha (Q9UQM7 whole entry): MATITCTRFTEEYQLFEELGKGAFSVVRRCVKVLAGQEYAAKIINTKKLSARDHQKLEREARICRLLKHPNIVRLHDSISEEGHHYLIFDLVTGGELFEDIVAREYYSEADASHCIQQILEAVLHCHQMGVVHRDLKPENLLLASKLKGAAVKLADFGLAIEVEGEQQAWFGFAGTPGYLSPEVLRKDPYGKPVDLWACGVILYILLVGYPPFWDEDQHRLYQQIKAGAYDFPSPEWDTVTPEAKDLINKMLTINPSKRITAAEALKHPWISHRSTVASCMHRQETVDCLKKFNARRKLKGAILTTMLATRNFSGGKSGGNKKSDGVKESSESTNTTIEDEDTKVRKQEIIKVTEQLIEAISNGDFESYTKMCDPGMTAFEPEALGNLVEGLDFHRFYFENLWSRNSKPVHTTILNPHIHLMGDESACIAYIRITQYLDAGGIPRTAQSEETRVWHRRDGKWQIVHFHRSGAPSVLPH
Chain of LIM domain kinase 1 (Homo sapiens) (P53667 whole entry, looked up, the tested form may be a part): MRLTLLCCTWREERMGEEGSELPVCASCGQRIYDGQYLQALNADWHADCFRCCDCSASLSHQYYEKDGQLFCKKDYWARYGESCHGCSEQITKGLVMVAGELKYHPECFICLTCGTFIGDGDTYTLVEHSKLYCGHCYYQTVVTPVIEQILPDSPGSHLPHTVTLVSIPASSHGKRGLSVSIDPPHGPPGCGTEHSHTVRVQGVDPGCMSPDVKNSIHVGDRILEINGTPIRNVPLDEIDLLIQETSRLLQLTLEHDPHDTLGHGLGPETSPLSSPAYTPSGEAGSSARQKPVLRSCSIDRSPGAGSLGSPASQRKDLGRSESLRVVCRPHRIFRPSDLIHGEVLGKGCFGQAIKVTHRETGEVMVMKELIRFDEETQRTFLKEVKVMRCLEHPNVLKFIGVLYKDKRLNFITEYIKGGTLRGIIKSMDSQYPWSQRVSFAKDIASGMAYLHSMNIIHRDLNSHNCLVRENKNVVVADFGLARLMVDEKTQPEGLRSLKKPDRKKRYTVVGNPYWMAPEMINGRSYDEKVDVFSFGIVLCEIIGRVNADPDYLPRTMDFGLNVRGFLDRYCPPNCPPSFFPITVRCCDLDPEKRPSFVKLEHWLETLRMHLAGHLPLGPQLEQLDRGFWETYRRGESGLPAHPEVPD
T1 sequence (Q15418 whole entry): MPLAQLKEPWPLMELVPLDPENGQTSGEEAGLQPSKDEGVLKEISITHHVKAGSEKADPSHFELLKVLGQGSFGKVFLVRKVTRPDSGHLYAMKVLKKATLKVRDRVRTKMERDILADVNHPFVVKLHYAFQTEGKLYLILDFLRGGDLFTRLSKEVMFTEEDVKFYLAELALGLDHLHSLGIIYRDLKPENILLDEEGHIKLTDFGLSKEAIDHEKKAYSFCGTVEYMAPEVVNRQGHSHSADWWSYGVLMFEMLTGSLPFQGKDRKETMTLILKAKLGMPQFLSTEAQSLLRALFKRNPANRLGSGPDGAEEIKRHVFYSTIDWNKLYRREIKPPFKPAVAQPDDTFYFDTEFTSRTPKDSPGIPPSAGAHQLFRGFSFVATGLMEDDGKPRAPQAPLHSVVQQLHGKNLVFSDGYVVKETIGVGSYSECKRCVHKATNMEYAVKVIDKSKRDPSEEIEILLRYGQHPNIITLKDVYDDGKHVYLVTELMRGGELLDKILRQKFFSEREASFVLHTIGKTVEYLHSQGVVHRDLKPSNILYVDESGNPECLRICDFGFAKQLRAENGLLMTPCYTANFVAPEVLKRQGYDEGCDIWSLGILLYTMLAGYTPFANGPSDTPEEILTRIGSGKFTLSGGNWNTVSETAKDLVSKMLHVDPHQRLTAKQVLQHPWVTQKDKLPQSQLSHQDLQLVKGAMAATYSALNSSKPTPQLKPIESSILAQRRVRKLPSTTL
Chain of Serine/threonine-protein kinase 32C (Homo sapiens) (Q86UX6 whole entry): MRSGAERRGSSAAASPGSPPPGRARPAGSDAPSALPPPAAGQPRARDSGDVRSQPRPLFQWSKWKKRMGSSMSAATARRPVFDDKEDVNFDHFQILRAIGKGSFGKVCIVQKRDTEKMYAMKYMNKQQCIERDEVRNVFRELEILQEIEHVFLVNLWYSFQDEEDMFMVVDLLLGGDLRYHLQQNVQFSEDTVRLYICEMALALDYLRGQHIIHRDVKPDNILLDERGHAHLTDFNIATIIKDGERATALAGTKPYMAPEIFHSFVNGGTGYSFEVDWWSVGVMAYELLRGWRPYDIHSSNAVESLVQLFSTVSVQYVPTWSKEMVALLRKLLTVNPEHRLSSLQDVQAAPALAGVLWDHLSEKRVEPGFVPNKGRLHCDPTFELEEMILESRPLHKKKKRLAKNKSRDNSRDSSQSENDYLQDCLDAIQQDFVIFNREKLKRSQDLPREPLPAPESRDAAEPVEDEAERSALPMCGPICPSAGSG
Chain of Serine/threonine-protein kinase Nek7 (Homo sapiens) (Q8TDX7 whole entry, looked up): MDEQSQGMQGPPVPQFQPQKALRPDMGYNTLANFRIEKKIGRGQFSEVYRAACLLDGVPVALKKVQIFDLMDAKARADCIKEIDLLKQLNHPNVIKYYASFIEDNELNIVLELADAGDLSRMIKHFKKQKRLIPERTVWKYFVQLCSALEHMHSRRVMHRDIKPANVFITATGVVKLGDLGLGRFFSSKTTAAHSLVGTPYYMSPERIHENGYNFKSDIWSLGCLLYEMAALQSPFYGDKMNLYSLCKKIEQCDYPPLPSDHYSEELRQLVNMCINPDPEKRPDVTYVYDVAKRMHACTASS
Chain of Angiopoietin-1 receptor (Homo sapiens) (Q02763 whole entry): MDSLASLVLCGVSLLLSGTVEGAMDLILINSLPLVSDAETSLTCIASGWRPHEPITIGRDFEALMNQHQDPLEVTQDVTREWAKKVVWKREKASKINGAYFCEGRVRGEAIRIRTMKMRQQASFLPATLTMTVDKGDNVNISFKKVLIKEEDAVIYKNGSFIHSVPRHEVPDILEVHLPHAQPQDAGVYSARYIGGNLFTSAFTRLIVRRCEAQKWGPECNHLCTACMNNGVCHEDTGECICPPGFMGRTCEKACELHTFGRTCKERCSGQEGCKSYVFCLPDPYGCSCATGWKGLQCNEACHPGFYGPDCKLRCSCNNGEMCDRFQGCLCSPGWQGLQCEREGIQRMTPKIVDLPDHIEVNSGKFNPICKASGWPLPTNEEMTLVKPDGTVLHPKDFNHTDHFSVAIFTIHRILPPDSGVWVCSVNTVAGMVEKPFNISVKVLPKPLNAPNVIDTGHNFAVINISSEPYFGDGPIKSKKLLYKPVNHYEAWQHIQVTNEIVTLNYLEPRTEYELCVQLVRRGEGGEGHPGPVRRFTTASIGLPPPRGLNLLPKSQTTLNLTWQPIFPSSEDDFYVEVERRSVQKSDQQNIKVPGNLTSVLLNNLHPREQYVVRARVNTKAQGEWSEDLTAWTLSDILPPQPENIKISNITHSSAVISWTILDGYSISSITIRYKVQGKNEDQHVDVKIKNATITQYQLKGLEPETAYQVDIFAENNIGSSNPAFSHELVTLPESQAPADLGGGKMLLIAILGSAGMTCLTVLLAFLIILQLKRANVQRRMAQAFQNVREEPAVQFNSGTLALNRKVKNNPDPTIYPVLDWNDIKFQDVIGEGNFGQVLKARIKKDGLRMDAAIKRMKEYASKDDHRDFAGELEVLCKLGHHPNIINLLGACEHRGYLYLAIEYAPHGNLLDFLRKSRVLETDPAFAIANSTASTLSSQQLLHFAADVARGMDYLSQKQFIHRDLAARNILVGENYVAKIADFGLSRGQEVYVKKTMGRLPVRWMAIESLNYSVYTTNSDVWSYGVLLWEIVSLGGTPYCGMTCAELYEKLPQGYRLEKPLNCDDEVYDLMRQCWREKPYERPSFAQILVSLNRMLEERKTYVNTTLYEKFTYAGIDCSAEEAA
Chain of Mitogen-activated protein kinase 14 (Q16539 whole entry): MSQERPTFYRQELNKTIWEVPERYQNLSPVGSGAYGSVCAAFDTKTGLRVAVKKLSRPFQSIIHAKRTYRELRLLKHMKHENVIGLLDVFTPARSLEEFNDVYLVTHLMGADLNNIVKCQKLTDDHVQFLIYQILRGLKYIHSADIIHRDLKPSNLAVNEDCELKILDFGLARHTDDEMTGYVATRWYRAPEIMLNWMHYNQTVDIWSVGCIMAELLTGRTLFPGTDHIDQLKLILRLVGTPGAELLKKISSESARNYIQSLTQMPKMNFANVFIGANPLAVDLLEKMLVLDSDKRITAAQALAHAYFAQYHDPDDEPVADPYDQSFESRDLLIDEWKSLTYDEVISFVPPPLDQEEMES
Chain of Tyrosine-protein kinase Lyn (P07948 2-512 limits assumed): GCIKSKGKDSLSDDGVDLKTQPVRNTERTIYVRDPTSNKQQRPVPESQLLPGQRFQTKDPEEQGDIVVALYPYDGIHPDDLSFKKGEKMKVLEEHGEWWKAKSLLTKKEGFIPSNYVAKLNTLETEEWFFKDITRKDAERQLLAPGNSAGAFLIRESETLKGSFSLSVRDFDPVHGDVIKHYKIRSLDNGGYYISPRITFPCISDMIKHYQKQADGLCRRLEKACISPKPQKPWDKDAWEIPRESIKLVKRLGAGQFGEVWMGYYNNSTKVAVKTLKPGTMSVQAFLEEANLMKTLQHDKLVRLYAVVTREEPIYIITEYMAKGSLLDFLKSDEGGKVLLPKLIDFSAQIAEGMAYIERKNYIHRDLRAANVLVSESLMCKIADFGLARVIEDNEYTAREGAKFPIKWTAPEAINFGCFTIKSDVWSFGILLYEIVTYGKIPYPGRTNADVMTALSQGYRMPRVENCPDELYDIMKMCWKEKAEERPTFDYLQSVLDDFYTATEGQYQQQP
Chain of Aurora kinase B (Q96GD4 whole entry): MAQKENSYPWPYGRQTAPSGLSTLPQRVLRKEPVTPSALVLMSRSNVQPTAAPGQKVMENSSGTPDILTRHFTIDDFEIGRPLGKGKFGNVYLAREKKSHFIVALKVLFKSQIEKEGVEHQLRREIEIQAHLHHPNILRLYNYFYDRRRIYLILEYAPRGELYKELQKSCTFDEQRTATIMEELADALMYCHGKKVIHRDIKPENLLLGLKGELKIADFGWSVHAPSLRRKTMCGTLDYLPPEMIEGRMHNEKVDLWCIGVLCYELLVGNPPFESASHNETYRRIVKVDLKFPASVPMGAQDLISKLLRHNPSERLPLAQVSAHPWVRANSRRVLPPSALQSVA

For `C=CC(=O)Nc1ccc(C(=O)Nc2[nH]nc3c2CN(C(=O)N[C@H](CN(C)C)c2ccccc2)C3(C)C)cc1`, the % of engagement [1] was -4.6%.

Work on `COCC(=O)NC/C=C/c1ccc2ncnc(Nc3ccc(Oc4ccc(C)nc4)c(C)c3)c2c1` [CP-724714] yielded a % of control [2] of 96% and a % of control [3] of 93%.

`C=CC(=O)Nc1cc(-n2c(=O)ccc3cnc4ccc(-c5ccc(NS(C)(=O)=O)cc5)cc4c32)ccc1C` was tested, and the % of control ([4]; at 1 µM) was 98% and the % of control ([4]; at 10 µM) was 69%.

`Nc1cnc(N2CCc3cc(S(=O)(=O)Nc4c(F)cc(Cl)cc4F)cc(N4CCCC4=O)c32)nc1` [TP-020n] was tested, and the % of control [5] was 93%.

Molecule `O=C(NOC[C@H](O)CO)c1ccc(F)c(F)c1Nc1ccc(I)cc1F` has a % of control [6] of 100%.

`Cc1cc([C@@H](C)Nc2ccccc2C(=O)O)c2nc(N3CCOCC3)cc(=O)n2c1` [AZD-6482] was tested, and the % of control [7] was 100%.

Work on `Cc1cnc(Nc2ccc(F)cc2Cl)nc1-c1c[nH]c(C(=O)N[C@H](CO)c2cccc(Cl)c2)c1` yielded a Ki [8] greater than 4 µM.

For `COc1cc(Nc2nc(C)cc(-c3cnn4nc(OC)ccc34)n2)cc(C(F)(F)F)c1`, the % of control [9] was 87%, the IC50 [10] was greater than 10 µM and the % of control [11] was 100%. For the same molecule, the % of control [12] was 89%.

Work on `CN1Cc2nccc(-c3cn(C)nc3-c3ccc(F)cc3)c2C1=O` yielded a % of inhibition (Aurora kinase B) of 4%.

Work on `CNC(=O)Nc1ccc(-c2nc(N3CC4CCC(C3)O4)c3cnn(C4CCC5(CC4)OCCO5)c3n2)cc1` yielded a % of control [13] of 85%, a % of control [14] of 100% and a % of control [15] of 100%.

`O[C@H]1CC[C@H](Nc2ncc3nc(Nc4c(F)cc(F)cc4F)n([C@H]4CCOC4)c3n2)CC1` showed a % of control [16] of 100%.

`CC[C@@H]1[C@H](F)C(=O)N[C@@H]1COc1nccc2cc(C(N)=O)c(OC)cc12` [ZIMLOVISERTIB] was tested, and the % of inhibition [17] was 7.6%.

Work on `CN(C)C/C=C/C(=O)Nc1ccc(C(=O)N2CCCC(Nc3ncc(Cl)c(-c4c[nH]c5ccccc45)n3)C2)cc1` (stereo unspecified) yielded a % of control [18] of 100% and a % of control [19] of 93%.
